Read-outs that look alike come from different tables or passages of the source.
Experiment: Plasma concentration versus time of Compound I and metabolite Compound III in patients dosed QD or BID with Form B of Compound II plus fulvestrant
Type: in vivo, human
Details: human, plasma, oral
From the text: Patients were enrolled into 1 of 2 parallel, independently operating, dose-escalation dosing cohorts with Form B of Compound II administered continuously either once daily (QD) or twice daily (BID) with food with fixed-dose fulvestrant (intramuscularly every 14 days for the first three injections and then every 28 days). Pre- or perimenopausal patients also received goserelin for the duration of study treatment. A […] agonist was started at least 28 days before the first dose of Form B, and those patients who were taking another LHRH agonist were switched to goserelin on Day 1. Patients were split into […] cohorts providing once a day (QD) dosing of 200 mg, 300 mg, 400 mg, 500 mg, or 650 mg of Form B, or twice a day (BID) dosing of 100 mg, 150 mg, or 200 mg of Form B. The second dose in BID cohorts was not administered in the evening until at least 12 hours after the initial morning dose of Form B. The dosing cohorts for Form B of Compound II are provided in Table 1.
Blood samples were collected at the following time points relative to the morning dose of Form B at Day 1 and at Day 29: pre-dose (0 hour) and 1, 2, 3, 4, 6, 8, 10, 12 (prior to the evening dose in the BID cohorts), and 24 (prior to the next day's morning dose) hours after dosing. A 5-minute time window was allowed for samples collected between the predose and 3 hours after Form B dosing. A 15-minute window was allowed for samples collected between 4 to 12 hours after Form B dosing. A 1-hour window was allowed for the sample collected 24 hours after Form B dosing. Blood samples for Compound I PK trough levels were collected pre-dose at Day 8, Day 15, and Day 22 prior to the morning administration of Compound I. Plasma concentrations of Compound I and its metabolite, Compound III, were measured using validated methods.
Analysis of plasma concentration versus time data for calculation of standard pharmacokinetic (PK) parameters following oral administration was conducted using Phoenix WinNonlin version 6.3 using actual blood sampling times.

## CC(C)N1CCN(c2ccc(Nc3ncc4cc5n(c4n3)C3(CCCCC3)CNC5=O)nc2)CC1 [Compound I, 2′-((5-(4-isopropylpiperazin-1-yl)pyridin-2-yl)amino)-7′,8′-dihydro-6′H-spiro[cyclohexane-1,9′-pyrazino[1′,2′:1,5]pyrrolo[2,3-d]pyrimidin]-6′-one]
200 mg, 200 mg QD of Form B, Day 29, 3.0 h, Median, read-out: Compound I Concentration
  concentration at 3 h: 0.0118 µg/mL
200 mg, 200 mg QD of Form B, Day 29, 4.0 h, Mean, read-out: Compound I Concentration
  concentration at 4 h: 0.0175 µg/mL
200 mg, 200 mg QD of Form B, Day 29, 4.0 h, Median, read-out: Compound I Concentration
  concentration at 4 h: 0.0188 µg/mL
200 mg, 200 mg QD of Form B, Day 29, 6.0 h, Mean, read-out: Compound I Concentration
  concentration at 6 h: 0.0185 µg/mL
200 mg, 200 mg QD of Form B, Day 29, 6.0 h, Median, read-out: Compound I Concentration
  concentration at 6 h: 0.0179 µg/mL
200 mg, 200 mg QD of Form B, Day 29, 8.0 h, Mean, read-out: Compound I Concentration
  concentration at 8 h: 0.0146 µg/mL
200 mg, 200 mg QD of Form B, Day 29, 8.0 h, Median, read-out: Compound I Concentration
  concentration at 8 h: 0.0121 µg/mL
200 mg, 200 mg QD of Form B, Day 29, 10.0 h, Mean, read-out: Compound I Concentration
  concentration at 10 h: 0.0111 µg/mL
200 mg, 200 mg QD of Form B, Day 29, 10.0 h, Median, read-out: Compound I Concentration
  concentration at 10 h: 0.0087 µg/mL
200 mg, 200 mg QD of Form B, Day 29, 12.0 h, Mean, read-out: Compound I Concentration
  concentration at 12 h: 0.00846 µg/mL
200 mg, 200 mg QD of Form B, Day 29, 12.0 h, Median, read-out: Compound I Concentration
  concentration at 12 h: 0.00832 µg/mL
200 mg, 200 mg QD of Form B, Day 29, […], Mean, read-out: Compound I Concentration
  concentration at 24 h: 0.00601 µg/mL
200 mg, 200 mg QD of Form B, Day 29, […], Median, read-out: Compound I Concentration
  concentration at 24 h: 0.0049 µg/mL
200 mg, Cohort 8, 200 mg BID of Form B, Day 29, 0.0 h, read-out: Compound I Concentration, Mean
  concentration at 0 h: 0.00974 µg/mL
200 mg, Cohort 8, 200 mg BID of Form B, Day 29, 0.0 h, read-out: Compound I Concentration, Min
  concentration at 0 h: 0.00547 µg/mL
200 mg, Cohort 8, 200 mg BID of Form B, Day 29, 1.0 h, read-out: Compound I Concentration, Mean
  concentration at 1 h: 0.00923 µg/mL
200 mg, Cohort 8, 200 mg BID of Form B, Day 29, 1.0 h, read-out: Compound I Concentration, Min
  concentration at 1 h: 0.0051 µg/mL
200 mg, Cohort 8, 200 mg BID of Form B, Day 29, 2.0 h, read-out: Compound I Concentration, Mean
  concentration at 2 h: 0.012 µg/mL
200 mg, Cohort 8, 200 mg BID of Form B, Day 29, 2.0 h, read-out: Compound I Concentration, Min
  concentration at 2 h: 0.00556 µg/mL
200 mg, Cohort 8, 200 mg BID of Form B, Day 29, 3.0 h, read-out: Compound I Concentration, Mean
  concentration at 3 h: 0.0152 µg/mL
200 mg, Cohort 8, 200 mg BID of Form B, Day 29, 3.0 h, read-out: Compound I Concentration, Min
  concentration at 3 h: 0.00749 µg/mL
200 mg, Cohort 8, 200 mg BID of Form B, Day 29, 4.0 h, read-out: Compound I Concentration, Mean
  concentration at 4 h: 0.0211 µg/mL
200 mg, Cohort 8, 200 mg BID of Form B, Day 29, 4.0 h, read-out: Compound I Concentration, Min
  concentration at 4 h: 0.00769 µg/mL
200 mg, Cohort 8, 200 mg BID of Form B, Day 29, 6.0 h, read-out: Compound I Concentration, Max
  concentration at 6 h: 0.0281 µg/mL
200 mg, Cohort 8, 200 mg BID of Form B, Day 29, 6.0 h, read-out: Compound I Concentration, Mean
  concentration at 6 h: 0.019 µg/mL
200 mg, Cohort 8, 200 mg BID of Form B, Day 29, 6.0 h, read-out: Compound I Concentration, Min
  concentration at 6 h: 0.0076 µg/mL
200 mg, Cohort 8, 200 mg BID of Form B, Day 29, 8.0 h, read-out: Compound I Concentration, Max
  concentration at 8 h: 0.0217 µg/mL
200 mg, Cohort 8, 200 mg BID of Form B, Day 29, 8.0 h, read-out: Compound I Concentration, Mean
  concentration at 8 h: 0.0146 µg/mL
200 mg, Cohort 8, 200 mg BID of Form B, Day 29, 8.0 h, read-out: Compound I Concentration, Min
  concentration at 8 h: 0.00736 µg/mL
200 mg, Cohort 8, 200 mg BID of Form B, Day 29, 10.0 h, read-out: Compound I Concentration, Max
  concentration at 10 h: 0.0386 µg/mL
200 mg, Cohort 8, 200 mg BID of Form B, Day 29, 10.0 h, read-out: Compound I Concentration, Mean
  concentration at 10 h: 0.0186 µg/mL
200 mg, Cohort 8, 200 mg BID of Form B, Day 29, 10.0 h, read-out: Compound I Concentration, Min
  concentration at 10 h: 0.00561 µg/mL
200 mg, Cohort 8, 200 mg BID of Form B, Day 29, 12.0 h, read-out: Compound I Concentration, Max
  concentration at 12 h: 0.0408 µg/mL
200 mg, Cohort 8, 200 mg BID of Form B, Day 29, 12.0 h, read-out: Compound I Concentration, Mean
  concentration at 12 h: 0.0198 µg/mL
200 mg, Cohort 8, 200 mg BID of Form B, Day 29, 12.0 h, read-out: Compound I Concentration, Min
  concentration at 12 h: 0.00632 µg/mL
300 mg, 300 mg QD of Form B, Day 1, 0.0 h, Mean, read-out: Compound I Concentration
  concentration at 0 h: 0 µg/mL
300 mg, 300 mg QD of Form B, Day 1, 0.0 h, Median, read-out: Compound I Concentration
  concentration at 0 h: 0 µg/mL
300 mg, 300 mg QD of Form B, Day 1, 1.0 h, Mean, read-out: Compound I Concentration
  concentration at 1 h: 0.0229 µg/mL
300 mg, 300 mg QD of Form B, Day 1, 1.0 h, Median, read-out: Compound I Concentration
  concentration at 1 h: 0.00373 µg/mL
300 mg, 300 mg QD of Form B, Day 1, 2.0 h, Mean, read-out: Compound I Concentration
  concentration at 2 h: 0.0169 µg/mL
300 mg, 300 mg QD of Form B, Day 1, 2.0 h, Median, read-out: Compound I Concentration
  concentration at 2 h: 0.00596 µg/mL
300 mg, 300 mg QD of Form B, Day 1, 3.0 h, Mean, read-out: Compound I Concentration
  concentration at 3 h: 0.0271 µg/mL
300 mg, 300 mg QD of Form B, Day 1, 3.0 h, Median, read-out: Compound I Concentration
  concentration at 3 h: 0.0134 µg/mL
300 mg, 300 mg QD of Form B, Day 1, 4.0 h, Mean, read-out: Compound I Concentration
  concentration at 4 h: 0.032 µg/mL
300 mg, 300 mg QD of Form B, Day 1, 4.0 h, Median, read-out: Compound I Concentration
  concentration at 4 h: 0.0198 µg/mL
300 mg, 300 mg QD of Form B, Day 1, 6.0 h, Mean, read-out: Compound I Concentration
  concentration at 6 h: 0.0316 µg/mL
300 mg, 300 mg QD of Form B, Day 1, 6.0 h, Median, read-out: Compound I Concentration
  concentration at 6 h: 0.0431 µg/mL
300 mg, 300 mg QD of Form B, Day 1, 8.0 h, Mean, read-out: Compound I Concentration
  concentration at 8 h: 0.0227 µg/mL
300 mg, 300 mg QD of Form B, Day 1, 8.0 h, Median, read-out: Compound I Concentration
  concentration at 8 h: 0.0281 µg/mL
300 mg, 300 mg QD of Form B, Day 1, 10.0 h, Mean, read-out: Compound I Concentration
  concentration at 10 h: 0.0199 µg/mL
300 mg, 300 mg QD of Form B, Day 1, 10.0 h, Median, read-out: Compound I Concentration
  concentration at 10 h: 0.0181 µg/mL
300 mg, 300 mg QD of Form B, Day 1, 12.0 h, Mean, read-out: Compound I Concentration
  concentration at 12 h: 0.0155 µg/mL
300 mg, 300 mg QD of Form B, Day 1, 12.0 h, Median, read-out: Compound I Concentration
  concentration at 12 h: 0.0135 µg/mL
300 mg, 300 mg QD of Form B, Day 1, […], Mean, read-out: Compound I Concentration
  concentration at 24 h: 0.00809 µg/mL
300 mg, 300 mg QD of Form B, Day 1, […], Median, read-out: Compound I Concentration
  concentration at 24 h: 0.00848 µg/mL
300 mg, 300 mg QD of Form B, Day 29, 0.0 h, Mean, read-out: Compound I Concentration
  concentration at 0 h: 0.0139 µg/mL
300 mg, 300 mg QD of Form B, Day 29, 0.0 h, Median, read-out: Compound I Concentration
  concentration at 0 h: 0.00824 µg/mL
300 mg, 300 mg QD of Form B, Day 29, 1.0 h, Mean, read-out: Compound I Concentration
  concentration at 1 h: 0.0162 µg/mL
